Legend:
[1] = test system: neuroblastoma cell line; settings: combination with fenretinide; cited from earlier work
[2] = test system: T cells; assay: Proliferation rate / toxicity of PPMP treatment on T cells (cell proliferation/cytotoxicity assay kit CK-1, Dojindo); format: cell-based, mouse; settings: isolated T cells
Experimental: (§1) The isolated T cells were treated with PPMP in concentrations of 0, 1, 5 and 10 μM for 24 hours, and then measuring the expression level of GM3 (left view) and the proliferation rate of the cells (right view).
(§2) Using Dynabeads Untouched Mouse T Cells kit (Thermo fisher Scientific), T cells were isolated from the excised spleen, and the T cells were then activated by IL-2 (30 U/mL) and Dynabeads Mouse T-Cell activator CD3-CD28 (Thermo fisher Scientific). Thereafter, the T cells were recovered over time, and the expression of a PD-1 gene was then analyzed by qPCR. With regard to the proliferation rate of the T cells after the activation, the proliferation rate was increased in the cells derived from the T cell-specific UGCG gene-deficient mice (FIG. 7A).
(§3) The T cells were isolated in the same manner as that of the above 3, and the isolated T cells were then treated with PPMP used as a UGCG inhibitor in various concentrations for 24 hours. Thereafter, the expression level of ganglioside GM3 was analyzed using a flow cytometer. […] Moreover, in order to examine the toxicity of the PPMP treatment on T cells, the proliferation rate of the T cells was measured using a cell proliferation/cytotoxicity assay kit (CK-1, Dojindo).

[3] = biological target: T1, UGCG (Mus musculus, UniProt O88693); assay: Expression level of ganglioside GM3 in isolated T cells after in vitro PPMP treatment (flow cytometer); format: cell-based; settings: isolated mouse spleen T cells, PPMP 0, 1, 5 and 10 μM for 24 hours
T1 construct: endogenous in cells; host or cells: primary T cells isolated from mouse spleen
T1 sequence (O88693 1-394): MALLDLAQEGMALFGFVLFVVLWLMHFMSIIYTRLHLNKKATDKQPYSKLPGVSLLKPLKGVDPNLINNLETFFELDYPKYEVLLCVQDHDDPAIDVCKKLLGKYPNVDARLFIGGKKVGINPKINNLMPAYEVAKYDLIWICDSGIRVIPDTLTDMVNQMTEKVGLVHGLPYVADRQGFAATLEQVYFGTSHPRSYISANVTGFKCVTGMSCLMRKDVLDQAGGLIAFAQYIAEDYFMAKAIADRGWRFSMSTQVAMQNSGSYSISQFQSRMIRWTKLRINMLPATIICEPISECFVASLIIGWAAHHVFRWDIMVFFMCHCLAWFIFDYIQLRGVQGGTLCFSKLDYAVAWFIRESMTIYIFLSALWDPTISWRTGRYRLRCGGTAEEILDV
Experimental: as §1, §2, §3

[4] = test system: acute leukemia-derived cell line ALL; settings: combination with fenretinide; cited from earlier work

CCCCCCCCCCCCCCCC(=O)NC(CN1CCOCC1)C(O)c1ccccc1 (centres unmarked) [PPMP, 1-phenyl-2-hexadecanoylamino-3-morpholino-1-propanol]
effect on cytotoxicity of fenretinide (4-HPR) [1]: synergistically enhances the cytotoxicity
proliferation rate of the T cells ([2]; PPMP 0, 1, 5 and 10 μM for 24 hours, concentration range of reducing glycolipids): did not influence on the proliferation rate
toxicity of PPMP on the cells ([2]; PPMP treatment for 24 hours): low
expression level of ganglioside GM3 [3]: reduced in a PPMP concentration-dependent manner
effect on cytotoxicity of fenretinide (4-HPR) [4]: synergistically enhances the cytotoxicity

Source: patent US20210386783A1, “USE OF GLUCOSYLCERAMIDE SYNTHASE GENE-DEFICIENT T CELL AND THERAPEUTIC UTILIZATION THEREOF” (SCHOOL CORPORATION, AZABU VETERINARY MEDICINE EDUCATIONAL …, priority 2018, published 2021)
